US20170333532A1, “ADP'ASE-ENHANCED APYRASE THERAPY FOR WOUNDS, MICROBIAL INFECTION, SEPSIS, AND HETEROTOPIC OSSIFICATION” (APT THERAPEUTICS, INC, priority 2014, published 2017)

Key:
Assay type in all cases: cell-based
[1] = test system: P. aeruginosa strain AU7443, mucoid; assay: Killing of P. aeruginosa AU7443, mucoid by colistin with Apyrase Agent, CFU count; conditions: colistin at less than 20 μg/ml, with Apyrase Agent 2 U/ml or alone
Description: (§1) In this Example (and in subsequent Examples), the colistin is colistin sulfate salt, catalog number C4461 from Sigma-Aldrich (St. Louis, Mo.) and the apyrase is catalog number M0393L from New England BioLabs Inc. (Ipswich, Mass.).
(§2) P. aeruginosa strain AU7443, mucoid is grown in the presence of combinations of 0 and 2 U/ml of Apyrase Agent and approximately 0 to 20 μg/ml of colistin. After incubation, the numbers of viable cells are determined by counting the colony forming units (CFU) on the plate (data provided as CFU/ml). Apyrase Agent improves the efficiency of killing P. aeruginosa strain AU7443, mucoid by colistin. Apyrase Agent increases the effectiveness of colistin at less than 20 μg/ml such that less than 10 to 100 CFU/ml are detected relative to greater than 10^4 to 10^5 in the presence of colistin alone at the same concentrations.

[2] = test system: A. baumannii strain ATCC 19606; assay: Killing of A. baumannii ATCC 19606 by colistin with Apyrase Agent, CFU count; conditions: about 10^6 CFU/ml inoculum; Apyrase Agent 1 and 2 U/ml with colistin, or colistin alone at the same concentrations (0.25-2 μg/ml)
Description: Approximately 10^6 CFU/ml of A. baumannii strain ATCC 19606 is grown on solid medium culture plates in the presence of combinations of 0, 1, and 2 U/ml of Apyrase Agent and 0, 0.25, 0.5, 1, and 2 μg/ml of colistin. After incubation, the numbers of viable cells are determined by counting the colony forming units (CFU) on the plate (data provided as CFU/ml).
as §1

[3] = test system: A. baumannii strain AC285; assay: Killing of colistin-resistant A. baumannii AC285 by colistin with Apyrase Agent, CFU count; conditions: colistin at less than 5-10 μg/ml, with Apyrase Agent 2 U/ml or alone
Description: as §1
Approximately 10^5 to 10^6 CFU/ml of the colistin-resistant A. baumannii strain AC285 is grown in the presence of combinations of 0 and 2 U/ml of Apyrase Agent and approximately 0 to 32 μg/ml of colistin. After incubation, the numbers of viable cells are determined by counting the colony forming units (CFU) on the plate (data provided as CFU/ml). Apyrase Agent improves the efficiency of killing A. baumannii strain AC285 by colistin. Apyrase Agent increases the effectiveness of colistin at less than 5-10 μg/ml such that less than 10 to 100 CFU/ml are detected relative to greater than 10^7 to 10^8 in the presence of colistin alone at the same concentrations.

[4] = test system: Burkholderia cepacia AU1114; assay: Killing of Burkholderia cepacia AU1114 by colistin with Apyrase Agent, CFU count; conditions: colistin at less than 20 μg/ml, with Apyrase Agent 2 U/ml or alone
Description: as §1
as §2, with “Burkholderia cepacia AU1114” for “P. aeruginosa strain AU7443, mucoid”, “10^5” for “10^4”, “10^6” for “10^5”

[5] = test system: P. aeruginosa strain AU1292; assay: Killing of P. aeruginosa AU1292 by colistin with Apyrase Agent, CFU count; conditions: colistin at less than 20 μg/ml, with Apyrase Agent 2 U/ml or alone
Description: as §1
as §2, with “AU1292” for “AU7443, mucoid”

[6] = test system: Burkholderia cepacia GUIa AU0019; assay: Killing of Burkholderia cepacia GUIa AU0019 by colistin with Apyrase Agent, CFU count; conditions: colistin at less than 10 μg/ml, with Apyrase Agent 2 U/ml or alone
Description: as §1
as §2, with “Burkholderia cepacia GUIa AU0019 is” for “P. aeruginosa strain AU7443, mucoid is”, “killing Burkholderia cepacia GUIa AU0019” for “killing P. aeruginosa strain AU7443, mucoid”, “than 10” for “than 20”, “than 10^5” for “than 10^4”, “to 10^6” for “to 10^5”

[7] = test system: Burkholderia cepacia GIIIb AU0055; assay: Killing of Burkholderia cepacia GIIIb AU0055 by colistin with Apyrase Agent, CFU count; conditions: colistin at less than 10 μg/ml, with Apyrase Agent 2 U/ml or alone
Description: as §1
as §2, with “Burkholderia cepacia GIIIb AU0055 is” for “P. aeruginosa strain AU7443, mucoid is”, “killing Burkholderia cepacia GIIIb AU0055” for “killing P. aeruginosa strain AU7443, mucoid”, “than 10” for “than 20”

[8] = test system: Burkholderia multivorans AU0801; assay: Killing of Burkholderia multivorans AU0801 by colistin with Apyrase Agent, CFU count; conditions: colistin at less than 10 μg/ml, with Apyrase Agent 2 U/ml or alone
Description: as §1
as §2, with “Burkholderia multivorans AU0801 is” for “P. aeruginosa strain AU7443, mucoid is”, “killing Burkholderia multivorans AU0801” for “killing P. aeruginosa strain AU7443, mucoid”, “than 10” for “than 20”, “than 10^5” for “than 10^4”, “to 10^6” for “to 10^5”

[9] = test system: Burkholderia cepacia GIIIb AU0062; assay: Killing of Burkholderia cepacia GIIIb AU0062 by colistin with Apyrase Agent, CFU count; conditions: colistin at less than 20 μg/ml, with Apyrase Agent 2 U/ml or alone
Description: as §1
as §2, with “Burkholderia cepacia GIIIb AU0062” for “P. aeruginosa strain AU7443, mucoid”

## colistin sulfate salt
[1]
  numbers of viable cells (CFU): 10^4 to 10^5 CFU/ml
[2]
  viable cell count: approximately 10^5 CFU/ml
[3]
  numbers of viable cells (CFU): 10^7 to 10^8 CFU/ml
[4]
  numbers of viable cells (CFU): 10^5 to 10^6 CFU/ml
[5]
  numbers of viable cells (CFU): 10^4 to 10^5 CFU/ml
[6]
  numbers of viable cells (CFU): 10^5 to 10^6 CFU/ml
[7]
  numbers of viable cells (CFU): 10^4 to 10^5 CFU/ml
[8]
  numbers of viable cells (CFU): 10^5 to 10^6 CFU/ml
[9]
  numbers of viable cells (CFU): 10^4 to 10^5 CFU/ml
